Experimental data from ChEMBL document CHEMBL5113530, “Butyrylation Meets Adipogenesis-Probed by a p300-Catalyzed Acylation-Specific Small Molecule Inhibitor: Implication in Anti-obesity Therapy” (J Med Chem, 2022).
Activity calls are given as the source filed them. No cut-off for these calls is given here.

Key:
[1] = Mutagenicity in Salmonella typhimurium TA98 assessed as number of revertants measured per plate at 10 to 1000 incubated for 48 hrs in absence of rat liver S9 fraction by plate incorporation assay; format: toxicity; conditions: salmonella enterica subsp. enterica serovar typhimurium, s9, 48 h, dose 10-1000 µg
[2] = Toxicity in male Sprague-Dawley rat assessed as effect on body weight at 250 mg/kg, po administered as single dose measured on day 1 (reference value: 174.75 +/- 7.61 g); format: organism-based; conditions: in vivo, 24 h, time 1 day
[3] = Toxicity in male Sprague-Dawley rat assessed as average food intake at 500 mg/kg, po administered as single dose measured on day 14 (Rvb =21.24 g/day); format: organism-based; conditions: in vivo, 336 h, time 14 day
[4] = Toxicity in male Sprague-Dawley rat assessed as average water intake measured per day at 1000 mg/kg, po administered as single dose measured on day 1 (Rvb =32 ml/day); format: organism-based; conditions: in vivo, 24 h, time 1 day
Mus musculus [5] = test: Anti-obesity activity in db/db mouse assessed as inhibition of Pprag-gene expression at 50 mg/kg, po qd administered for 30 days by qRT-PCR analysis; format: functional, organism-based; conditions: time 30.0 day
[6] = Toxicity in female Sprague-Dawley rat assessed as average water intake measured per day at 1000 mg/kg, po administered as single dose measured on day 7 (Rvb =21 ml/day); format: organism-based; conditions: in vivo, 168 h, time 7 day
[7] = Mutagenicity in Salmonella typhimurium TA102 assessed as number of revertants measured per plate at 10 to 1000 incubated for 48 hrs in absence of rat liver S9 fraction by plate incorporation assay; format: toxicity; conditions: salmonella enterica subsp. enterica serovar typhimurium, s9, 48 h, dose 10-1000 µg
Mus musculus [8] = test: Anti-obesity activity in db/db mouse assessed as reduction in hepatic steatosis at 50 mg/kg, po qd administered for 30 days by hematoxylin and eosin staining based assay; format: functional, organism-based; conditions: time 30.0 day
[9] = Toxicity in female Sprague-Dawley rat assessed as effect on body weight at 250 mg/kg, po administered as single dose measured on day 14 (Rvb =171.5 +/- 6.65 g); format: organism-based; conditions: in vivo, 336 h, time 14 day
[10] = Stability of compound in mouse 3T3-L1 cells measured after 6 days by LC-ESI-MS analysis; format: ADME, cell-based; conditions: 3t3-l1, 144 h, time 6 day
[11] = Toxicity in male Sprague-Dawley rat assessed as average food intake at 250 mg/kg, po administered as single dose measured on day 7 (Rvb =20.24 g/day); format: organism-based; conditions: in vivo, 168 h, time 7 day
Mus musculus [12] = test: Anti-obesity activity in db/db mouse assessed as reduction in adipocyte hypertrophy at 50 mg/kg, po qd administered for 30 days by hematoxylin and eosin staining based assay; format: functional, organism-based; conditions: time 30.0 day
[13] = Toxicity in female Sprague-Dawley rat assessed as average water intake measured per day at 1000 mg/kg, po administered as single dose measured on day 1 (Rvb =25 ml/day); format: organism-based; conditions: in vivo, 24 h, time 1 day
[14] = Toxicity in male Sprague-Dawley rat assessed as effect on body weight at 1000 mg/kg, po administered as single dose measured on day 7 (reference value: 217.38 +/- 11.38 g); format: organism-based; conditions: in vivo, 168 h, time 7 day
[15] = Toxicity in male Sprague-Dawley rat assessed as average food intake at 500 mg/kg, po administered as single dose measured on day 1 (Rvb =20.38 g/day); format: organism-based; conditions: in vivo, 24 h, time 1 day
[16] = molecular target: Histone acetyltransferase p300 (Homo sapiens) (UniProt Q09472); test: Inhibition of recombinant full length His-tagged EP300 catalyzed butyrylation (unknown origin) expressed in baculovirus infected Sf21insect cells using Histone H3 as substrate at 25 uM preincubated with compound for 10 mins followed by butyryl-CoA addition and measured after 10 mins by Western blot analysis; conditions: Sf21, time 20.0 min
Chain of Histone acetyltransferase p300 (Homo sapiens) (Q09472 whole entry, the tested form may be a part): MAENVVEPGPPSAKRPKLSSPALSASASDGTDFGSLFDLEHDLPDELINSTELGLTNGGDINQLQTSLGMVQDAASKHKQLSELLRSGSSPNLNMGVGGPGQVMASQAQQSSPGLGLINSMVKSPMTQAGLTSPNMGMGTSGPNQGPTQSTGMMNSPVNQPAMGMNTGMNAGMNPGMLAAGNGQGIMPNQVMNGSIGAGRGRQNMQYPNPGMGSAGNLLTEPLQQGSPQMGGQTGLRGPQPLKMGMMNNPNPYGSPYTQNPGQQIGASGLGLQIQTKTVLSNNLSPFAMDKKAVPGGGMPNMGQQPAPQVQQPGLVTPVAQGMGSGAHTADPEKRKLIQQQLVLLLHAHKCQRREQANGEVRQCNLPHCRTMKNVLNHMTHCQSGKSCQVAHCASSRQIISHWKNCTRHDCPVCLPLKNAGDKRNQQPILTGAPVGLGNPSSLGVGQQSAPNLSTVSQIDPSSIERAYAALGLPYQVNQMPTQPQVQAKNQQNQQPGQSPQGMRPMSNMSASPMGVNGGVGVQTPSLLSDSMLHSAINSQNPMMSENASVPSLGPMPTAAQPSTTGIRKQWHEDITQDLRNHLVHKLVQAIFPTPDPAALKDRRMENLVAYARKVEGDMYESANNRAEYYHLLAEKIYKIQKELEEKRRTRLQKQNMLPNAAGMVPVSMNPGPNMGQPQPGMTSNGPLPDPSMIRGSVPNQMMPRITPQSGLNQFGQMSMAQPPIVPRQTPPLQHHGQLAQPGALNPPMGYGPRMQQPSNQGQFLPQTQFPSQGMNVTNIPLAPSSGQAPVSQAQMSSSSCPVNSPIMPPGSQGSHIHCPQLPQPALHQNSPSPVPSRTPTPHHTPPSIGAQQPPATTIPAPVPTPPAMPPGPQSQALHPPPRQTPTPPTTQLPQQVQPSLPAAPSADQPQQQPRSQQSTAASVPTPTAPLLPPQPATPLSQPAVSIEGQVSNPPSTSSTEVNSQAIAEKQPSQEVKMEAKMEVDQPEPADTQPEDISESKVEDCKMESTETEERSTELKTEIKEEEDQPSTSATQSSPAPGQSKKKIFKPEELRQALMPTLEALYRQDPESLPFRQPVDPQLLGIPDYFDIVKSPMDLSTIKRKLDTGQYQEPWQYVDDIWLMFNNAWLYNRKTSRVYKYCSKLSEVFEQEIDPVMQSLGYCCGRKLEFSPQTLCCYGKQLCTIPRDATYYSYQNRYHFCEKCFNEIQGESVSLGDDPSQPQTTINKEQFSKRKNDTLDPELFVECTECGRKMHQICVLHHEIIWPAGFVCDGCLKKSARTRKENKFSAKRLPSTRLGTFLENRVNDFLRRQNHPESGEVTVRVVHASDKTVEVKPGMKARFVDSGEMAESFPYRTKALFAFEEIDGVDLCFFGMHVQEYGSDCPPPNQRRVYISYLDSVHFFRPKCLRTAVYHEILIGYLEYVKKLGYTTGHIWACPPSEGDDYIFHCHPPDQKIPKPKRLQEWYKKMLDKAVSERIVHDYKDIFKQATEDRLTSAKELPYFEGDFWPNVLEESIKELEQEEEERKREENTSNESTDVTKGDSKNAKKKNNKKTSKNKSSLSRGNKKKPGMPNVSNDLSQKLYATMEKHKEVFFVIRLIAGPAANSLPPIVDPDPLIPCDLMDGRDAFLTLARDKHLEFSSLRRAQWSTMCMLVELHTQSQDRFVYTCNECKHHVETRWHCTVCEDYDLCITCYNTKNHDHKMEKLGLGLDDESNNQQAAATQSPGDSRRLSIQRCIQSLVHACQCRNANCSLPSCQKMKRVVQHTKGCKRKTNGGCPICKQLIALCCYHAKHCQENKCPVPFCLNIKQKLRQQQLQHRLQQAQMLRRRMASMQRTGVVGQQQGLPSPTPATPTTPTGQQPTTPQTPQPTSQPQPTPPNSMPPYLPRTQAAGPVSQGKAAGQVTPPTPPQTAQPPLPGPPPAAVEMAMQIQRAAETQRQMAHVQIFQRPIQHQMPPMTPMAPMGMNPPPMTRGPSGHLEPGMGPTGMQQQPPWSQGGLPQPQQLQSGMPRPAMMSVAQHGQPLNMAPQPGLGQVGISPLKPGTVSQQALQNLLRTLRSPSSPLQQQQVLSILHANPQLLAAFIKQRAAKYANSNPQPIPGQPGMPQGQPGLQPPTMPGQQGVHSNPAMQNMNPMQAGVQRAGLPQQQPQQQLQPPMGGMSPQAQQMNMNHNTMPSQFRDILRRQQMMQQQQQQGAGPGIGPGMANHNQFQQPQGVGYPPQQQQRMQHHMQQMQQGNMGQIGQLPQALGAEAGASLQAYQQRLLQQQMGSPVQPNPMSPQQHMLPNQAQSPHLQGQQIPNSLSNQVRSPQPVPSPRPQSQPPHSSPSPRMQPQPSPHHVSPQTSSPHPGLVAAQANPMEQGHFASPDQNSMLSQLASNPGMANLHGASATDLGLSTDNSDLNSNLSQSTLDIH

3T3-L1 [17] = test: Anti-adipogenic activity against mouse 3T3-L1 cells assessed as downregulation of CEBPD mRNA expression at 25 uM measured after 7 days by qRT-PCR analysis; format: functional, cell-based; conditions: time 7.0 day
[18] = Toxicity in female Sprague-Dawley rat assessed as average food intake at 250 mg/kg, po administered as single dose measured on day 14 (Rvb =15.95 g/day); format: organism-based; conditions: in vivo, 336 h, time 14 day
Mus musculus [19] = test: Anti-obesity activity in db/db mouse assessed as reduction in H4K5 butyrylation level in liver at 50 mg/kg, po qd administered for 30 days by DAPI staining based immunofluorescence microscopic analysis; format: functional, organism-based; conditions: time 30.0 day
[20] = Toxicity in female Sprague-Dawley rat assessed as average water intake measured per day at 250 mg/kg, po administered as single dose measured on day 14 (Rvb =26 ml/day); format: organism-based; conditions: in vivo, 336 h, time 14 day
3T3-L1 [21] = test: Anti-adipogenic activity against mouse 3T3-L1 cells assessed as upregulation of KDM4C mRNA expression at 25 uM measured after 7 days by qRT-PCR analysis; format: functional, cell-based; conditions: time 7.0 day
3T3-L1 [22] = test: Anti-adipogenic activity against mouse 3T3-L1 cells at 25 uM incubated for 8 days by Oil Red O staining based spectrophotometric analysis; format: functional, cell-based; conditions: time 8.0 day
3T3-L1 [23] = test: Anti-adipogenic activity against mouse 3T3-L1 cells assessed as downregulation of FASN mRNA expression at 25 uM measured after 7 days by qRT-PCR analysis; format: functional, cell-based; conditions: time 7.0 day
[24] = Toxicity in male Sprague-Dawley rat assessed as average water intake measured per day at 500 mg/kg, po administered as single dose measured on day 7 (Rvb =30 ml/day); format: organism-based; conditions: in vivo, 168 h, time 7 day
[25] = Toxicity in female Sprague-Dawley rat assessed as average food intake at 250 mg/kg, po administered as single dose measured on day 7 (Rvb =15.65 g/day); format: organism-based; conditions: in vivo, 168 h, time 7 day
[26] = molecular target: Histone acetyltransferase p300 (Homo sapiens) (UniProt Q09472); test: Inhibition of wild-type His-tagged EP300 catalytic domain catalyzed butyrylation (unknown origin) expressed in Escherichia coli BL21 (DE3) using Histone H3 as substrate at 25 uM preincubated with compound for 10 mins followed by butyryl-CoA addition and measured after 10 mins by Western blot analysis; conditions: time 20.0 min
[27] = Toxicity in male Sprague-Dawley rat assessed as average water intake measured per day at 1000 mg/kg, po administered as single dose measured on day 7 (Rvb =30 ml/day); format: organism-based; conditions: in vivo, 168 h, time 7 day
[28] = Toxicity in female Sprague-Dawley rat assessed as effect on body weight at 1000 mg/kg, po administered as single dose measured on day 1 (Rvb =152.21 +/- 6.58 g); format: organism-based; conditions: in vivo, 24 h, time 1 day
[29] = Toxicity in male Sprague-Dawley rat assessed as effect on body weight at 500 mg/kg, po administered as single dose measured on day 7 (reference value: 217.38 +/- 11.38 g); format: organism-based; conditions: in vivo, 168 h, time 7 day
Mus musculus [30] = test: Anti-obesity activity in C57BL6/J mouse model of high fat diet-induced obesity assessed as reduction in epididymal fat pad weight at 50 mg/kg; format: functional, organism-based
[31] = Toxicity in male Sprague-Dawley rat assessed as effect on body weight at 1000 mg/kg, po administered as single dose measured on day 1 (reference value: 174.75 +/- 7.61 g); format: organism-based; conditions: in vivo, 24 h, time 1 day
[32] = Toxicity in female Sprague-Dawley rat assessed as average water intake measured per day at 1000 mg/kg, po administered as single dose measured on day 14 (Rvb =26 ml/day); format: organism-based; conditions: in vivo, 336 h, time 14 day
Mus musculus [33] = test: Anti-obesity activity in db/db mouse assessed as inhibition of lep gene expression at 50 mg/kg, po qd administered for 30 days by qRT-PCR analysis; format: functional, organism-based; conditions: time 30.0 day

In the case of `COc1ccc(C(=O)C2=C3OC(C)(C)[C@@H](CC=C(C)C)C[C@@]34C[C@@H](CC=C(C)C)C(C)(C)[C@](CC=C(C)C)(C2=O)C4=O)cc1OC`, the Activity [1] is reported as “Non-Toxic”, the Activity [2] is reported as 171.94 g and the Activity [3] is reported as 23.29 g/day. The Activity [4] was 34 mL, the Activity (Mus musculus [5]) was “Active” and the Activity [6] was 22 mL. For the same compound, the Activity [7] was “Non-Toxic”, the Activity (Mus musculus [8]) was “Active” and the Activity [9] was 176.35 g. For the same compound, the Stability [10] was “Stable”, the Activity [11] was 20.79 g/day and the Activity (Mus musculus [12]) was “Active”. The Activity [13] was 26 mL, the Activity [14] was 217.65 g and the Activity [15] was 20.99 g/day. The inhibition [16] was “Active”, the Activity (3T3-L1 [17]) was “Active” and the Activity [18] was 16.65 g/day. The Activity (Mus musculus [19]) was “Active”, the Activity [20] was 24 mL and the Activity (3T3-L1 [21]) was “Active”. The Activity (3T3-L1 [22]) was “Active”, the Activity (3T3-L1 [23]) was “Active” and the Activity [24] was 33 mL. The Activity [25] was 16.32 g/day, the inhibition [26] was “Active” and the Activity [27] was 31 mL. For the same compound, the Activity [28] was 153.81 g, the Activity [29] was 229.75 g and the Activity (Mus musculus [30]) was “Active”. The Activity [31] was 176.24 g, the Activity [32] was 32 mL and the Activity (Mus musculus [33]) was “Active”.
